Results: PMC12528448, “Resistance to CDK7 inhibitors directed by acquired mutation of a conserved residue in cancer cells” (The EMBO Journal, 2025)
Where “and” joins values, the source holds several entries; their conditions need not be identical. Equal entries are not always repeated.

Key:
MCF7-CDK7-D97N cells = assay: Growth assay (SRB), MCF7 CDK7-D97N knock-in; format: cell-based, human; conditions: 4 days; for % Growth: MCF7 CDK7 D99N, biological reps
Procedure, shortened: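 CRISPR-Cas9 knock-in lines were treated with increasing drug concentrations two days after seeding, then grown 4 days. Cell number by SRB staining; IC50 from non-linear regression.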

[1] = test system: 22Rv1 CDK7-D97N CL3 cells; assay: Growth assay (SRB), 22Rv1 homozygous CDK7-D97N clone CL3; format: cell-based; conditions: Homo sapiens; 22Rv1 CDK7-D97N complete knock-in clone CL3; Figure R1; read-out: IC50, growth inhibition
Method: (§1) To determine the IC50 of drug treatments on growth, cells were seeded in 96-well culture plates. Two days after seeding, the cells were treated with increasing concentrations of drugs and incubated for 4 days. Cell number was determined using the SRB assay (Skehan et al, [1990]), and IC50 values were calculated using non-linear regression curve fitting in GraphPad Prism v10. For all other growth experiments, cells were seeded into 96-well plates, and appropriate drugs were added 2 days after seeding. Cells were then incubated in an IncuCyte Zoom live-cell imager, with cell confluency measured every 6 h. Cell doubling times were determined by non-linear curve fitting (exponential growth equation) in GraphPad Prism v10.
Alt-R^TM S.p. Cas9 nuclease V3, Alt-R CRISPR-Cas9 crRNA, TracrRNA and the donor templates were obtained from Integrated DNA Technologies. […] Cells were treated with 0.7 µM of Alt-R HDR Enhancer V2 to improve HRD efficiency. Sequences of the CRISPRs in the crRNA and the donor templates are shown in the Reagents and tools table. Donor templates were designed to include non-coding substitutions to aid genome DNA PCR for identifying knock-in events and to facilitate cloning; these substitutions are noted in the Reagents and tools table.

22Rv1-SamR cells [2] = assay: IncuCyte confluency growth, 22Rv1-SamR; format: cell-based, human; conditions: 22Rv1-SamR; for % Confluency: 1.25µM Samuraciclib
Method: as §1

22Rv1-SamR cells [3] = assay: Growth assay (SRB), Samuraciclib-resistant 22Rv1; format: cell-based, human; conditions: 4 days; for % Growth: 22Rv1 SamR, biological reps
Procedure, shortened: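 Doubling times come from exponential growth fits of live-cell confluency, which was imaged every 6 h after drug addition on day 2 post-seeding. IC50 values derive from SRB cell counts after a 4-day exposure to a concentration series, also started on day 2.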

[4] = test system: 22Rv1 homozygous CDK7-D97N CL3 cells; assay: IncuCyte confluency growth, 22Rv1 homozygous CDK7-D97N CL3; format: cell-based, human; conditions: for % Confluency: 1.25µM Samuraciclib
Method: as §1

22Rv1 cells = assay: IncuCyte confluency growth, 22Rv1; format: cell-based, human; conditions: 1.25µM Samuraciclib
Method: as §1

## CC(C)c1cnn2c(NCc3ccccc3)cc(NC[C@H]3CCNC[C@@H]3O)nc12 [Samuraciclib]
MCF7-CDK7-D97N cells; Homo sapiens, 96 h, MCF7-CDK7-D97N, SRB
  IC50: 549 nM
MCF7-CDK7-D97N cells; Log10 Conc. (nM) 0.09
  % Growth: 93.84% and 106.04% and 113.40% and 105.52%
MCF7-CDK7-D97N cells; Log10 Conc. (nM) 0.69
  % Growth: 86.29% and 99.08% and 100.28% and 99.62%
MCF7-CDK7-D97N cells; Log10 Conc. (nM) 1.29
  % Growth: 88.99% and 86.43% and 96.17% and 90.33%
MCF7-CDK7-D97N cells; Log10 Conc. (nM) 1.89
  % Growth: 85.74% and 86.71% and 90.03% and 87.55%
MCF7-CDK7-D97N cells; Log10 Conc. (nM) 2.49
  % Growth: 75.98% and 70.58% and 83.78% and 70.72%
MCF7-CDK7-D97N cells; Log10 Conc. (nM) -0.52
  % Growth: 91.39% and 95.24% and 109.01% and 102.90%
[1]
  IC50: 1420 nM
22Rv1-SamR cells [2]; 0 hours
  % Confluency: 9.95% and 14.33% and 14.57%
22Rv1-SamR cells [2]; 6 hours
  % Confluency: 10.40% and 16.13% and 16.29%
22Rv1-SamR cells [2]; 12 hours
  % Confluency: 11.65% and 17.66% and 17.87%
22Rv1-SamR cells [2]; 18 hours
  % Confluency: 12.68% and 19.79% and 20.05%
22Rv1-SamR cells [2]; 24 hours
  % Confluency: 14.19% and 22.35% and 22.55%
22Rv1-SamR cells [2]; 30 hours
  % Confluency: 15.61% and 24.60% and 24.68%
22Rv1-SamR cells [2]; 36 hours
  % Confluency: 16.94% and 26.20% and 26.26%
22Rv1-SamR cells [2]; 42 hours
  % Confluency: 17.81% and 27.46% and 27.71%
22Rv1-SamR cells [2]; 48 hours
  % Confluency: 18.38% and 28.92% and 29.43%
22Rv1-SamR cells [2]; 54 hours
  % Confluency: 19.67% and 30.91% and 31.32%
22Rv1-SamR cells [2]; 60 hours
  % Confluency: 20.82% and 32.87% and 33.32%
22Rv1-SamR cells [2]; 66 hours
  % Confluency: 22.29% and 34.64% and 35.33%
22Rv1-SamR cells [2]; 72 hours
  % Confluency: 23.74% and 36.43% and 37.12%
22Rv1-SamR cells [2]; 78 hours
  % Confluency: 25.50% and 38.39% and 39.15%
22Rv1-SamR cells [2]; 84 hours
  % Confluency: 27.27% and 40.40% and 41.13%
22Rv1-SamR cells [2]; 90 hours
  % Confluency: 29.10% and 42.68% and 43.52%
22Rv1-SamR cells [2]; 96 hours
  % Confluency: 31.07% and 45.25% and 45.93%
22Rv1-SamR cells [2]; 114 hours
  % Confluency: 38.05% and 53.22% and 54.00%
22Rv1-SamR cells [2]; 120 hours
  % Confluency: 40.50% and 56.05% and 56.55%
22Rv1-SamR cells [2]; 126 hours
  % Confluency: 43.34% and 58.82% and 59.09%
22Rv1-SamR cells [2]; 132 hours
  % Confluency: 46.08% and 61.31% and 61.57%
22Rv1-SamR cells [2]; 138 hours
  % Confluency: 48.67% and 63.52% and 63.85%
22Rv1-SamR cells [2]; 144 hours
  % Confluency: 51.40% and 65.10% and 65.55%
22Rv1-SamR cells [2]; IncuCyte confluency, samuraciclib at 1.35 µM
  Growth inhibition over time: considerably less growth inhibited
22Rv1-SamR cells [3]; Log10 Conc. (nM) 0.09
  % Growth: 94.72% and 90.72% and 99.75%
22Rv1-SamR cells [3]; Log10 Conc. (nM) 0.69
  % Growth: 90.82% and 97.87% and 95.29%
22Rv1-SamR cells [3]; Log10 Conc. (nM) 1.29
  % Growth: 89.73% and 89.03% and 90.50%
22Rv1-SamR cells [3]; Log10 Conc. (nM) 1.89
  % Growth: 86.74% and 81.44% and 88.23%
22Rv1-SamR cells [3]; Log10 Conc. (nM) 2.49
  % Growth: 85.25% and 77.93% and 90.16%
22Rv1-SamR cells [3]; Log10 Conc. (nM) 3.10
  % Growth: 36.34% and 46.19% and 56.19%
22Rv1-SamR cells [3]; Log10 Conc. (nM) -0.52
  % Growth: 93.63% and 92.01% and 97.14%
22Rv1-SamR cells [3]; Homo sapiens, 96 h, 22Rv1-SamR, SRB, read-out: IC50, growth inhibition
  IC50: 1720 nM
[4]; CDK7D97N CL3, 0 hours
  % Confluency: 11.15% and 16.69% and 15.87%
[4]; CDK7D97N CL3, 6 hours
  % Confluency: 12.67% and 19.64% and 18.89%
[4]; CDK7D97N CL3, 12 hours
  % Confluency: 14.00% and 21.38% and 20.49%
[4]; CDK7D97N CL3, 18 hours
  % Confluency: 14.90% and 23.74% and 22.71%
[4]; CDK7D97N CL3, 24 hours
  % Confluency: 16.23% and 26.69% and 25.53%
[4]; CDK7D97N CL3, 30 hours
  % Confluency: 17.78% and 29.17% and 27.88%
[4]; CDK7D97N CL3, 36 hours
  % Confluency: 18.86% and 30.89% and 29.55%
[4]; CDK7D97N CL3, 42 hours
  % Confluency: 19.43% and 32.04% and 30.87%
[4]; CDK7D97N CL3, 48 hours
  % Confluency: 20.15% and 33.30% and 32.45%
[4]; CDK7D97N CL3, 54 hours
  % Confluency: 21.35% and 35.23% and 34.41%
[4]; CDK7D97N CL3, 60 hours
  % Confluency: 22.64% and 37.22% and 36.36%
[4]; CDK7D97N CL3, 66 hours
  % Confluency: 23.89% and 39.05% and 38.37%
[4]; CDK7D97N CL3, 72 hours
  % Confluency: 25.25% and 40.82% and 40.29%
[4]; CDK7D97N CL3, 78 hours
  % Confluency: 26.70% and 42.56% and 42.42%
[4]; CDK7D97N CL3, 84 hours
  % Confluency: 28.04% and 44.37% and 44.58%
[4]; CDK7D97N CL3, 90 hours
  % Confluency: 29.44% and 46.55%
[4]; CDK7D97N CL3, 96 hours
  % Confluency: 30.80% and 48.80% and 48.76%
[4]; CDK7D97N CL3, 114 hours
  % Confluency: 35.00% and 54.89% and 54.85%
[4]; CDK7D97N CL3, 120 hours
  % Confluency: 36.47% and 56.68%
[4]; CDK7D97N CL3, 126 hours
  % Confluency: 38.04% and 58.51% and 58.53%
[4]; CDK7D97N CL3, 132 hours
  % Confluency: 39.56% and 60.46% and 60.48%
[4]; CDK7D97N CL3, 138 hours
  % Confluency: 41.00% and 62.13% and 62.12%
[4]; CDK7D97N CL3, 144 hours
  % Confluency: 42.51% and 63.49% and 63.85%
[4]; 22Rv1 homozygous CDK7-D97N clone, IncuCyte confluency, samuraciclib at 1.35 µM
  Growth inhibition over time: considerably less growth inhibited
22Rv1 cells; 22Rv1, 0 hours
  % Confluency: 11.09% and 19.39% and 18.69%
22Rv1 cells; 22Rv1, 6 hours
  % Confluency: 11.39% and 20.88% and 20.07%
22Rv1 cells; 22Rv1, 12 hours
  % Confluency: 11.53% and 22.21% and 21.45%
22Rv1 cells; 22Rv1, 18 hours
  % Confluency: 12.38% and 23.96% and 23.27%
22Rv1 cells; 22Rv1, 24 hours
  % Confluency: 12.59% and 24.76% and 24.14%
22Rv1 cells; 22Rv1, 72 hours
  % Confluency: 18.17% and 36.04% and 35.50%
22Rv1 cells; 22Rv1, 78 hours
  % Confluency: 18.89% and 36.95% and 36.29%
22Rv1 cells; 22Rv1, 84 hours
  % Confluency: 19.31% and 37.65% and 37.05%
22Rv1 cells; 22Rv1, 90 hours
  % Confluency: 19.76% and 38.15% and 37.44%
22Rv1 cells; 22Rv1, 96 hours
  % Confluency: 20.21% and 38.65% and 37.90%
22Rv1 cells; 22Rv1, 114 hours
  % Confluency: 21.28% and 39.48% and 38.59%
22Rv1 cells; 22Rv1, 120 hours
  % Confluency: 21.53% and 39.86% and 38.66%
22Rv1 cells; 22Rv1, 126 hours
  % Confluency: 21.77% and 39.89% and 38.66%
22Rv1 cells; 22Rv1, 132 hours
  % Confluency: 21.94% and 40.00% and 38.90%
22Rv1 cells; 22Rv1, 138 hours
  % Confluency: 22.18% and 40.24% and 38.99%
22Rv1 cells; 22Rv1, 144 hours
  % Confluency: 22.26% and 40.34% and 39.26%
